Laboratory results reported in US20240224995A1, “USE OF CLETHODIM FOR INSECT CONTROL” (SYNGENTA CROP PROTECTION AG, priority 2021, published 2024).

Assays:
Format in all cases: in vivo
[1] = system: Bemisia tabaci (Silverleaf whitefly); assay: Curative control of Bemisia tabaci second nymph stage (N2) on French beans, spray application
Description: (§1) Examples 1 to 3 describe biological tests relating to the curative and preventative control of a series of insects with the spray application of dilutions of a formulation containing clethodim as sole active ingredient (ai) (EC240 formulation (SELECT®)) in combination with OCHIMAR adjuvant (Syngenta—alkyl ester of phosphoric acid (752 g/L EC) formulation) to bean or cabbage plants infested with Bemisia tabaci, Frankliniella occidentalis or Myzus persicae (four replicates). The testing protocols and insect control effects are shown below.
Curative control of Bemisia tabaci (Silverleaf whitefly), second nymph stage (N2), treated on French beans (BBCH12):
All treatments (including check) were applied with 250 ml adjuvant (OCHIMA®) per hectare.

[2] = system: Frankliniella occidentalis (Western flower thrips); assay: Frankliniella occidentalis mixed aged population infested on French beans three hours after treatment, plant damage evaluation; conditions: 60 g ai/ha; plant damage by feeding on leaf tissue
Description: as §1
Frankliniella occidentalis (Western flower thrips), mixed aged population, infested on French beans (BBCH12) three hours after treatment.
All treatments (including check) were applied with 250 mL adjuvant (OCHIMA®) per hectare. The above table relates to an evaluation of plant damage caused by Western flower thrips feeding on leaf tissue.

[3] = system: Myzus persicae (Green peach aphids); assay: Curative control of Myzus persicae mixed aged population on Chinese cabbage, spray application; conditions: 120 and 60 g ai/ha
Description: as §1
Curative control of Myzus persicae (Green peach aphids), mixed aged population, on Chinese cabbage (BBCH19).
All adjuvant containing treatments were applied with 250 mL adjuvant (OCHIMA®) per hectare.

CCSC(C)CC1CC(=O)C(/C(CC)=N\OC/C=C/Cl)=C(O)C1 (racemic) [clethodim, (5RS)-2-[(1EZ)-N-{[(2E)-3-chloroallyl]oxy}propanimidoyl]-5-[(2RS)-2-(ethylthio)propyl]-3-hydroxycyclohex-2-en-1-one]
efficacy against whiteflies compared to thrips or aphids ([1]; data in Tables 1 to 3): surprising selective efficacy
control effect against whiteflies against the check treatment ([1]; two ai application rates (120 and 60 g ai/ha)): significant control effect
control effect against Western flower thrips against the check treatment [2]: at best minor
control effect against aphids against the check treatment [3]: at best minor
